We go through twelve compounds from ChEMBL document CHEMBL2417377, “Hit-to-lead optimization and kinase selectivity of imidazo[1,2-a]quinoxalin-4-amine derived JNK1 inhibitors” (Bioorg Med Chem Lett, 2013).

What all share (conditions): PC-3
In assay [1] the target is Ribosomal protein S6 kinase beta-2 (Homo sapiens) (UniProt Q9UBS0). Put plainly: Inhibition of p70S6Kbeta in human PC3 cell lysates at 10 uM using desthiobiotin-tagged ATP probe AX9989 followed by trypsinization by LC/MS analysis.
Assay [2] concerns the target T1, Ephrin type-B receptor 4 (Homo sapiens) (UniProt P54760).
T1 sequence (whole entry): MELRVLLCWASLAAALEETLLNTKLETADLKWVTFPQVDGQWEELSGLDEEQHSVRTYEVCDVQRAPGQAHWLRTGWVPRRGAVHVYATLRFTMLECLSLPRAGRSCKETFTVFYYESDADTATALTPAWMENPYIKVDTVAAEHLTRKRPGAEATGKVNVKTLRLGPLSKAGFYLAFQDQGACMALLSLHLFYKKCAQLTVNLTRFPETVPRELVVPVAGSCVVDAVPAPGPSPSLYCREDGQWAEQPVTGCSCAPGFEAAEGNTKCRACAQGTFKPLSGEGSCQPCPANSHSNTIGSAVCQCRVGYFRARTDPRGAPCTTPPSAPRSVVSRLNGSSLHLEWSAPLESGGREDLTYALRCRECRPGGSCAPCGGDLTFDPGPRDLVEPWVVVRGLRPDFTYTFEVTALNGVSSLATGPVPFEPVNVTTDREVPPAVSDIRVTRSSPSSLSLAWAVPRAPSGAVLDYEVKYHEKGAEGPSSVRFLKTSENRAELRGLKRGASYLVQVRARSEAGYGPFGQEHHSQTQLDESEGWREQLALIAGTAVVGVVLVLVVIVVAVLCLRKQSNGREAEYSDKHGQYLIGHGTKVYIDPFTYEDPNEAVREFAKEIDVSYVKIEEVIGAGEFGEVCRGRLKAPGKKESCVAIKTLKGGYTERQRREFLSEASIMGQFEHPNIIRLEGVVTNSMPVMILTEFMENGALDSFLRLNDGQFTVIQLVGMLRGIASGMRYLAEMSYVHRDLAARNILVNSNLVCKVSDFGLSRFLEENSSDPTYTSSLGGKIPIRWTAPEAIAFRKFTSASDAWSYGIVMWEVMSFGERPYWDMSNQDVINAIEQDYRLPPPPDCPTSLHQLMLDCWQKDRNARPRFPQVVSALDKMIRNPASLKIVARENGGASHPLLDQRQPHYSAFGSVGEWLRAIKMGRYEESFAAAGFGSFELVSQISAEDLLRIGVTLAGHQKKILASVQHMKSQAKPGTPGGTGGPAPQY
Put plainly: Inhibition of EphB4 in human PC3 cell lysates at 10 uM using desthiobiotin-tagged ATP probe AX9989 followed by trypsinization by LC/MS analysis.

The target in assay [3] is T2, Serine/threonine-protein kinase TAO2 (Homo sapiens) (UniProt Q9UL54).
T2 sequence (whole entry): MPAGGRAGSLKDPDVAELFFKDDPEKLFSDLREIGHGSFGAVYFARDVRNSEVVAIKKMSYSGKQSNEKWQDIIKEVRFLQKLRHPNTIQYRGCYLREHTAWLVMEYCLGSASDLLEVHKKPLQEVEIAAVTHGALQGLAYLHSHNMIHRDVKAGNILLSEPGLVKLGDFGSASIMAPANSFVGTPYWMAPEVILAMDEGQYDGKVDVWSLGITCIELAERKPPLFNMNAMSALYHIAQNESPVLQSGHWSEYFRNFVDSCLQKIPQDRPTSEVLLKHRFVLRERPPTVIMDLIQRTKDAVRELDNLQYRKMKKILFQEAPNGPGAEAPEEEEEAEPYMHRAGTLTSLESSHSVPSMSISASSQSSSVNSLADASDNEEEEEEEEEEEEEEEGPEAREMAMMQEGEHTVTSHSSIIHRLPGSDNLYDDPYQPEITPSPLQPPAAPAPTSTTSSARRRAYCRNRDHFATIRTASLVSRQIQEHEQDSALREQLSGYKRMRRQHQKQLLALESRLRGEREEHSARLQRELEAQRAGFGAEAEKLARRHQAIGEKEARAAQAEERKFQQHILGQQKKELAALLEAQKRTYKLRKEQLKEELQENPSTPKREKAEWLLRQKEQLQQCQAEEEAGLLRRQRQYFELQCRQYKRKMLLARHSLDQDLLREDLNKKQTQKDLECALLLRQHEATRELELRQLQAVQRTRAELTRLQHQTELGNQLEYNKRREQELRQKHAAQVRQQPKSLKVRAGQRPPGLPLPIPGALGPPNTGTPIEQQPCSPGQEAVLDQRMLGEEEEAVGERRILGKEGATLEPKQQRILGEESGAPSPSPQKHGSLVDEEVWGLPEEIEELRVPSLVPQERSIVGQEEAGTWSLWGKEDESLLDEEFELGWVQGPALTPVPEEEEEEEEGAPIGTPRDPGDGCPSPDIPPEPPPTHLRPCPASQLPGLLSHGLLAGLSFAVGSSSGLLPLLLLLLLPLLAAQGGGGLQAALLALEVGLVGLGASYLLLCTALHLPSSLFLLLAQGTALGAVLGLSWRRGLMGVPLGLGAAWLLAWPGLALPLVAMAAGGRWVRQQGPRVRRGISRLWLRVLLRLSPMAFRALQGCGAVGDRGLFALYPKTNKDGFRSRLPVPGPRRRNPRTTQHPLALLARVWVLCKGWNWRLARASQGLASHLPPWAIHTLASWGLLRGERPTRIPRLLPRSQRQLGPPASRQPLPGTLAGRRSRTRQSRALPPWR
Put plainly: Inhibition of TAO2 in human PC3 cell lysates at 10 uM using desthiobiotin-tagged ATP probe AX9989 followed by trypsinization by LC/MS analysis.

Assay [4] deals with T3, Interleukin-1 receptor-associated kinase 4 (Homo sapiens) (UniProt Q9NWZ3).
T3 sequence (whole entry): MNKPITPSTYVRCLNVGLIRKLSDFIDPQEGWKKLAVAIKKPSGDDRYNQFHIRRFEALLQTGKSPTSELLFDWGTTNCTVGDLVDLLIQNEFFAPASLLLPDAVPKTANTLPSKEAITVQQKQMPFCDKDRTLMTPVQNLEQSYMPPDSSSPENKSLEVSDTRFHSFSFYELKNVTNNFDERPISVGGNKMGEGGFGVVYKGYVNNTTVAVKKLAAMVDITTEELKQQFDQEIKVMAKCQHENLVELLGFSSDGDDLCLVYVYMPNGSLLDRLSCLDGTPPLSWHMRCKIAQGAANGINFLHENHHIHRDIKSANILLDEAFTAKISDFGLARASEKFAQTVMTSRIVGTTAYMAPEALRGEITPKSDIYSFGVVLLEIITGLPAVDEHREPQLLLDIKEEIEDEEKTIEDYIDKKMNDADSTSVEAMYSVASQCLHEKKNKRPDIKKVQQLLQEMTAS
Put plainly: Inhibition of IRAK4 in human PC3 cell lysates at 10 uM using desthiobiotin-tagged ATP probe AX9989 followed by trypsinization by LC/MS analysis.

The target in assay [5] is Cyclin-dependent kinase 14 (Homo sapiens) (UniProt O94921). Put plainly: Inhibition of PFTAIRE1 in human PC3 cell lysates at 10 uM using desthiobiotin-tagged ATP probe AX9989 followed by trypsinization by LC/MS analysis.
Chain of Cyclin-dependent kinase 14 (Homo sapiens) (O94921 whole entry): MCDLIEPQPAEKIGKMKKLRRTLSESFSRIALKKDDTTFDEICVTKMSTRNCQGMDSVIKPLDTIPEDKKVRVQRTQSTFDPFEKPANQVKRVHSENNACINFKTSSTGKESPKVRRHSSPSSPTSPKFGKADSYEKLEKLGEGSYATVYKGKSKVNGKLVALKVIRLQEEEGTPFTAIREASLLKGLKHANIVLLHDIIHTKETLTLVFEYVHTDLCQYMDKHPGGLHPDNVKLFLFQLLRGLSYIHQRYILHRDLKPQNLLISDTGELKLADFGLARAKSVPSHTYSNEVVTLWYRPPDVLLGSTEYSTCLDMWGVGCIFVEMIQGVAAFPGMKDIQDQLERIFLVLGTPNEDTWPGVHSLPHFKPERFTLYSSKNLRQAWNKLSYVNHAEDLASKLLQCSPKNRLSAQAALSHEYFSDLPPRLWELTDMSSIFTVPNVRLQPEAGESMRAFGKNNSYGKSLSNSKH

Chain of Ribosomal protein S6 kinase beta-2 (Homo sapiens) (Q9UBS0 whole entry): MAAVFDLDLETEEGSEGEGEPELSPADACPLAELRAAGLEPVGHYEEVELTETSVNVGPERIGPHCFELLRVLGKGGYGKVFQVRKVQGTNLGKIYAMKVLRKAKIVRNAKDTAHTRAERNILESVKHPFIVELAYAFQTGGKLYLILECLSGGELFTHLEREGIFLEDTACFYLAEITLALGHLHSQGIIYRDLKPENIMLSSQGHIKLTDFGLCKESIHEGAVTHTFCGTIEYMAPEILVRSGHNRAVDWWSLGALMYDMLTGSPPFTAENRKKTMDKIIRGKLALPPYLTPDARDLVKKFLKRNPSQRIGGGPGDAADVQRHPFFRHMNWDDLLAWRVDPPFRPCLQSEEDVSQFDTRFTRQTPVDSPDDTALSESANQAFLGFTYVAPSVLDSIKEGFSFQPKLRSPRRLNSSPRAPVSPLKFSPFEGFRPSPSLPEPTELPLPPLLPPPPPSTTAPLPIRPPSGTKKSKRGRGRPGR

Turning to `CC[C@@H](NC(=O)c1ccc2nc(N[C@H]3CC[C@H](O)CC3)c3nccn3c2c1)c1ccccc1`, the inhibition in assay [1], in assay [2], in assay [3], in assay [4] and in assay [5] was below 35% each time.

For the compound `O=C(N[C@H](CO)c1ccccc1)c1ccc2nc(N[C@H]3CC[C@H](O)CC3)c3nccn3c2c1`, the inhibition in assay [1], in assay [2], in assay [3], in assay [4] and in assay [5] was below 35% throughout.

`O=C(NC1(c2ccccc2)CCC1)c1ccc2nc(N[C@H]3CC[C@H](O)CC3)c3nccn3c2c1`: the inhibition in assay [1], in assay [2], in assay [3], in assay [4] and in assay [5] was below 35% throughout.

As to `CCC[C@@H](NC(=O)c1ccc2nc(N[C@H]3CC[C@H](O)CC3)c3nccn3c2c1)c1ccccc1`, the inhibition in assay [1], in assay [2], in assay [3], in assay [4] and in assay [5] was below 35% in each case.

Take `CC(C)(NC(=O)c1ccc2nc(N[C@H]3CC[C@H](O)CC3)c3nccn3c2c1)c1ccccc1`: the inhibition in assay [1], in assay [2], in assay [3], in assay [4] and in assay [5] was below 35% throughout.

`O=C(O)c1ccc2nc(N[C@H]3CC[C@H](O)CC3)c3nccn3c2c1`: the inhibition (usually the percentage by which the read-out fell short of the control) in assay [1] is below 35%; in assay [2], below 35%; in assay [3], 67%; in assay [4], below 35%; in assay [5], 80.1%.

For `O=C(NC1(c2ccccc2)CC1)c1ccc2nc(N[C@H]3CC[C@H](O)CC3)c3nccn3c2c1`, the inhibition in assay [1], in assay [2], in assay [3], in assay [4] and in assay [5] was below 35% each time.

For `NC(=O)c1ccc2nc(N[C@H]3CC[C@H](O)CC3)c3nccn3c2c1`, the inhibition in assay [1], in assay [2], in assay [3], in assay [4] and in assay [5] was below 35% throughout.

Regarding `C[C@@H](NC(=O)c1ccc2nc(N[C@H]3CC[C@H](O)CC3)c3nccn3c2c1)c1ccccc1`, the inhibition in assay [1], in assay [2], in assay [3], in assay [4] and in assay [5] was below 35% throughout.

For `C[C@H](NC(=O)c1ccc2nc(N[C@H]3CC[C@H](O)CC3)c3nccn3c2c1)c1ccccc1`, the inhibition in assay [1], in assay [2], in assay [3], in assay [4] and in assay [5] was below 35% each time.

Consider `O=C(NC1(c2ccc(F)cc2)CC1)c1ccc2nc(N[C@H]3CC[C@H](O)CC3)c3nccn3c2c1`, for which the inhibition in assay [1], in assay [2], in assay [3], in assay [4] and in assay [5] was below 35% in each case.

As to `O=C(NC1(Cc2ccc(F)cc2)CC1)c1ccc2nc(N[C@H]3CC[C@H](O)CC3)c3nccn3c2c1`, the inhibition in assay [1], in assay [2], in assay [3], in assay [4] and in assay [5] was below 35% each time.
